Reference: patent US11471436B2, “Dihydronaphthalene derivative” (ONO PHARMACEUTICAL CO., LTD., priority 2014, dated 2022)

How the values were obtained:
human S1P1 (EDG-1) [1] = molecular target: T1, human S1P1 (EDG-1) (Homo sapiens, UniProt P21453); test: Inhibition of binding of [33P]-S1P to S1P1, CHO membrane fractions; details: [33P]-S1P binding, membrane fractions of CHO cells overexpressing human S1P1
Experimental: (§1) Measurement of the Inhibitory Action of the Compound of the Present Invention on Binding of [^33P]-S1P to S1P5 (EDG-8)
(§2) A reaction was carried out in a 96-well microplate by using membrane fractions of Chinese hamster ovary (CHO) cells each of which was made to overexpress human S1P1 (EDG-1) or human S1P5 gene respectively, in an amount of the membrane fraction of 1 mg protein/mL. To each of the wells, 100 μL of a vehicle (DMSO) solution or a ligand solution at a two-fold concentration diluted with Binding Buffer (50 mmol/L, Tris pH 7.5, 5 mmol/L, MgCl2, 0.5% BSA and Complete EDTA free (1 tablet/50 mL)) and […] of 0.16 nmol/L [^33P]-S1P (manufactured by American Radiolabeled Chemicals, Inc.) diluted with Binding Buffer were added, and thereafter, each of membrane fraction solutions (50 μL) was added and the reaction was carried out at room temperature for 60 minutes. After the reaction, suction filtration was carried out by using a 96-well UNIFILTER, and the 96-well microplate was washed with Wash Buffer (50 mmol/L, Tris pH 7.5, 0.5% BSA) (150 mL), and thereafter, was dried at 60° C. for 45 minutes. MicroScint (trade name) 20 (50 μL/well) was added and the plate was covered with TopSeal-A, and thereafter, the radioactivity was measured by using TopCount (manufactured by PerkinElmer Inc.).

human S1P5 (EDG-8) [2] = molecular target: T2, human S1P5 (EDG-8) (Homo sapiens, UniProt Q9H228); test: Inhibition of binding of [33P]-S1P to S1P5, CHO membrane fractions; details: for IC50: [33P]-S1P binding, membrane fractions of CHO cells overexpressing human S1P5
T2 sequence (Q9H228 whole entry): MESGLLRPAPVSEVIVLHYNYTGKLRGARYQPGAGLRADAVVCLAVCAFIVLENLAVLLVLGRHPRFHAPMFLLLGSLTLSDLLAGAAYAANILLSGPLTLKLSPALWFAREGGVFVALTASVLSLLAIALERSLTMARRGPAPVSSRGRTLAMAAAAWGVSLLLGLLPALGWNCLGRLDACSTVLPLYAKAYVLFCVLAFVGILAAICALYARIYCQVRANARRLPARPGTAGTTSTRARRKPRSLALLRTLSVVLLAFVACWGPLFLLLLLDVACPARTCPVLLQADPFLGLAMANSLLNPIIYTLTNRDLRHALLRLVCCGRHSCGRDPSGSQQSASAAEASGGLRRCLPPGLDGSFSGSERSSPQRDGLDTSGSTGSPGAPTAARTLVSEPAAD
Experimental: as §1, §2

human S1P1 (EDG-1) [3] = molecular target: T1, human S1P1 (EDG-1); test: S1P receptor agonist activity by monitoring intracellular cyclic AMP, CHO cells overexpressing S1P1; type: cell-based; details: forskolin-stimulated CHO cells overexpressing human S1P1, read-out: EC 50 value with regard to S1P1 receptor
Experimental: (§3) Evaluation of S1P Receptor Agonist Activities of the Compound of the Present Invention by Monitoring the Concentration of Produced Intracellular Cyclic AMP
(§4) CHO cells which were made to overexpress either human S1P1 (EDG-1) or human S1P5 (EDG-8) gene respectively were cultured in Ham's F12 Medium (manufactured by Gibco-BRL) containing 10% FBS (fetal bovine serum), penicillin/streptomycin and geneticin (0.25 mg/mL). The medium was removed from the cultured cells, the cultured cells were washed once with phosphate-buffered saline, and the cultured cells were treated with a vehicle (DMSO) solution or a compound solution each of which was diluted with Buffer (Hanks' balanced salt solution containing 20 mmol/L HEPES, 0.1 or 0.2% BSA, 1 mmol/L IBMX and 50 μmol/L forskolin) at 37° C. for 30 minutes. Thereafter, the cultured cells were washed once with phosphate-buffered saline. After lysing the cells, the concentration of cyclic AMP in the cell lysate were measured by using cAMP Assay Kit (GE Healthcare).

human S1P5 (EDG-8) [4] = molecular target: T2, human S1P5 (EDG-8); test: S1P receptor agonist activity by monitoring intracellular cyclic AMP, CHO cells overexpressing S1P5; type: cell-based; details: forskolin-stimulated CHO cells overexpressing human S1P5, read-out: EC 50 value with regard to S1P5 receptor
Experimental: as §3, §4

T1 sequence (P21453 whole entry): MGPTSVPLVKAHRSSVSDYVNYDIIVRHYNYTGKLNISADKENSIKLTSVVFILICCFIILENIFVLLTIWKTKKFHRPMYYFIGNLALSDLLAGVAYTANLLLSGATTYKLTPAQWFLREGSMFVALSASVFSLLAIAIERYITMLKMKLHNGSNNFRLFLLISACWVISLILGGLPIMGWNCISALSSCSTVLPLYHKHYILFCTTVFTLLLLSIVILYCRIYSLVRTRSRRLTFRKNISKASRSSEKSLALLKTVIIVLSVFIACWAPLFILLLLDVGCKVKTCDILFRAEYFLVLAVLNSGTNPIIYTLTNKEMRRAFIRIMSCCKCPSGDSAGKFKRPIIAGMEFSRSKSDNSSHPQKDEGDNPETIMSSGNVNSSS

| Structure (SMILES) | IC50 (human S1P1 (EDG-1) [1]) [nM] | IC50 (human S1P5 (EDG-8) [2]) [nM] | EC50 (human S1P1 (EDG-1) [3]) [nM] | EC50 (human S1P5 (EDG-8) [4]) [nM] | balance of an S1P5 receptor agonist activity against an S1P1 receptor agonist activity (human S1P5 (EDG-8) [2]; conclusion in words from binding IC50 values S1P1 vs S1P5) |
| --- | --- | --- | --- | --- | --- |
| CC1Cc2cc(OC3CCCCC3)ccc2C=C1CN1CC(C(=O)O)C1 (stereo not shown) [Example 21, 1-{[6-(Cyclohexyloxy)-3-methyl-3,4-dihydro-2-naphthalenyl]methyl}-3-azetidinecarboxylic acid] | > 10000 | 16 | 9990 | 0.2 |  |
| O=C(O)C1CN(CC2=Cc3ccc(OC4CCCCC4)cc3CC2)C1 [Example 9 (2), 1-{[6-(Cyclohexyloxy)-3,4-dihydro-2-naphthalenyl]methyl}-3-azetidinecarboxylic acid] | > 10000 | 57.2 |  |  |  |

Now from value to molecule, other results behind:

| IC50 (human S1P1 (EDG-1) [1]) [nM] | IC50 (human S1P5 (EDG-8) [2]) [nM] | EC50 (human S1P1 (EDG-1) [3]) [nM] | EC50 (human S1P5 (EDG-8) [4]) [nM] | Structure (SMILES) | balance of an S1P5 receptor agonist activity against an S1P1 receptor agonist activity (human S1P5 (EDG-8) [2]; conclusion in words from binding IC50 values S1P1 vs S1P5) |
| --- | --- | --- | --- | --- | --- |
| > 10000 | 67.2 |  |  | CC1=C(CN2CC(C(=O)O)C2)CCc2cc(-c3ccccn3)ccc21 [Example 14 (3), 1-{[1-Methyl-6-(2-pyridinyl)-3,4-dihydro-2-naphthalenyl]methyl}-3-azetidinecarboxylic acid] |  |
| > 10000 | 22.4 |  |  | CC1=C(CN2CC(C(=O)O)C2)CCc2cc(-c3ccccc3)ccc21 [Example 14 (1), 1-[(1-Methyl-6-phenyl-3,4-dihydro-2-naphthalenyl)methyl]-3-azetidinecarboxylic acid] |  |
| 475 | 76 |  |  | CCCCc1ccc(Oc2ccc3c(c2)CCC(CN2CC(C(=O)O)C2)=C3C)cc1.Cl [Comparative Compound A, 1-{[6-(4-butylphenoxy)-1-methyl-3,4-dihydronaphthalen-2-yl]methyl}azetidine-3-carboxylic acid hydrochloride, reference compound] | had both S1P1 and S1P5 receptor agonist activities |
